This note sets out measurements from patent US20170226120A1, “INHIBITORS OF HIF PROLYL HYDROXYLASE” (MERCK SHARP & DOHME CORP., priority 2014, published 2017).

For one data set, the target named is T1, human HIF-PHD2 (Homo sapiens, UniProt Q9GZT9).
T1 construct: FLAG-tagged full length PHD2 expressed in and purified from baculovirus-infected Sf9 cells; FLAG; made in house; host or cells: baculovirus-infected Sf9 cells
The data set is described as follows: HIF-PHD2 inhibition, time resolved fluorescence assay of HIF-1α peptide hydroxylation. The format is biochemical. The conditions noted are these: FLAG-tagged full length PHD2; 0.2 μM 2-oxoglutarate, 0.5 μM HIF-1α peptide.

Data set [1] is described as follows: Tissue PK profile in rat (liver and plasma drug level). In kind it is in vivo. Conditions: 10 mg/kg, 4 hours after PO dosing at 10 mpk, vehicle 0.5% MC; for concentration at 4 h: po; for Kp at 4 h: liver/plasma, read-out: liver/plasma ratio. Here is the method: The tissue PK profile of compounds described in this application were evaluated in rat. The tissue was harvested 4 hours after PO dosing at 10 mpk (vehicle: 0.5% MC; dose volume: 5 mL/Kg) and the drug level was determined. Shown in Table 1 are compound concentrations of selected examples in rat liver and plasma, as well as liver to plasma drug ratio.

The mark [2] stands for this setting: liver, read-out: liver concentration.
The mark [3] stands for this setting: plasma, read-out: plasma concentration.

Read-outs that look alike come from different tables or passages of the source.

T1 sequence (Q9GZT9 whole entry): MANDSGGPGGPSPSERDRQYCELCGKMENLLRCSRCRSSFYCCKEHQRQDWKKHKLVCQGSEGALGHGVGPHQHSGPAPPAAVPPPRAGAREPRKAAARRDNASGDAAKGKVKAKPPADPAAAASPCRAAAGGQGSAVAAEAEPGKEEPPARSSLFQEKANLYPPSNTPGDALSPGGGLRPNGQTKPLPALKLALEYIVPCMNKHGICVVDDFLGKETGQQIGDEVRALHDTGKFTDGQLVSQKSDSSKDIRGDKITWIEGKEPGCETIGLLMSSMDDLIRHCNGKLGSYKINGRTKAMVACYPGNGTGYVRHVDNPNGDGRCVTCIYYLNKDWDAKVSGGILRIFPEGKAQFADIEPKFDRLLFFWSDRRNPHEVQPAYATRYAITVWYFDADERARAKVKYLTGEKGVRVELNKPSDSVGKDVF

For `Cc1cc(Cl)ccc1Cn1c2c(c(O)c(C(=O)NCC(=O)O)c1=O)COC2` [Example 42, 2-(1-(4-chloro-2-methylbenzyl)-4-hydroxy-2-oxo-1,2,5,7-tetrahydrofuro[3,4-b]pyridine-3-carboxamido)acetic acid], the IC50 (usually the concentration needed to halve the response being measured) at human HIF-PHD2 was determined as 4.1 nM. The concentration at 4 h in data set [1] (setting [2]) was determined as 54200 nM; in data set [1] (setting [3]), 1520 nM. Moreover, the Kp at 4 h in data set [1] turned out to be 35.6.
For `N#Cc1ccc(-c2ccc(Cn3c4c(c(O)c(C(=O)NCC(=O)O)c3=O)COC4)cc2)cc1` [Example 24, 2-(1-((4′-cyano-[1,1′-biphenyl]-4-yl)methyl)-4-hydroxy-2-oxo-1,2,5,7-tetrahydrofuro[3,4-b]pyridine-3-carboxamido)acetic acid], the half-inhibitory concentration (IC50) against human HIF-PHD2 is 1.5 nM. Also, the concentration at 4 h in data set [1] (setting [2]) was 642 nM; in data set [1] (setting [3]), 13.7 nM. Moreover, the Kp at 4 h in data set [1] was found to be 30.4.
